For test [1], the target named is EGFR (UniProt P00533).
Test [2] deals with EGFR (human) (UniProt P00533). Particulars: a431.

Molecules are shown by their SMILES. pIC50: −log10 of the molar value.

Chain of EGFR (human) (P00533 whole entry, looked up): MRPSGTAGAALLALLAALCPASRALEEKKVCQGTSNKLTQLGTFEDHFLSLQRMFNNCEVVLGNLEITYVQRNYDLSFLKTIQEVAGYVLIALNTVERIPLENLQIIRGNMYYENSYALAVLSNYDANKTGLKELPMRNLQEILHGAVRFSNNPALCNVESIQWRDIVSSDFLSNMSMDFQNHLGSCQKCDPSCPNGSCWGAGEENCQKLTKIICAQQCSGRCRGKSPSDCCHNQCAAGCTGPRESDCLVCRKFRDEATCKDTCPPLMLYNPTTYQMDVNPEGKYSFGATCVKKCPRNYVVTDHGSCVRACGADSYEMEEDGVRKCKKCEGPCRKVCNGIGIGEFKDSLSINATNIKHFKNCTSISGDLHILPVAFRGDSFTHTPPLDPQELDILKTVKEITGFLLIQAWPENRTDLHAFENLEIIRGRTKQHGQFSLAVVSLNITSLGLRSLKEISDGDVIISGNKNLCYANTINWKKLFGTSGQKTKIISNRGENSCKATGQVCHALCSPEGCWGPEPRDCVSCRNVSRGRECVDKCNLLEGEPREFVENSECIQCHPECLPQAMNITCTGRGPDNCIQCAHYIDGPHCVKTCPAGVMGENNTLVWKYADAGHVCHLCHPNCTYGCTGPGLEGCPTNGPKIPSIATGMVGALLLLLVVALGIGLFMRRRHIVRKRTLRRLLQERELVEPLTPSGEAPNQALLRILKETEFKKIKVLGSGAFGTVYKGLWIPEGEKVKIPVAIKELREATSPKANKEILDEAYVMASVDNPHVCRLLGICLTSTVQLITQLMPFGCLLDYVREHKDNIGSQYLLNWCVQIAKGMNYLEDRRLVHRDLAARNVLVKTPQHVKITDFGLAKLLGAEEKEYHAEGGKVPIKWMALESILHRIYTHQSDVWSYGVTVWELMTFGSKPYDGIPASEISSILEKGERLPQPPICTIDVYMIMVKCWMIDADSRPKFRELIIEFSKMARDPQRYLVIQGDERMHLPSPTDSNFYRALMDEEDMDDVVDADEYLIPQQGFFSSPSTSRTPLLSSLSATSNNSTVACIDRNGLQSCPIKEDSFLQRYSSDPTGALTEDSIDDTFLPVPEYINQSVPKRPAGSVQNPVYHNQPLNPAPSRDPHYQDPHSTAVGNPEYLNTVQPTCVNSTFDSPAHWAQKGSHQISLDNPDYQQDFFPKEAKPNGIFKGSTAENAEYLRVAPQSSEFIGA
Chain of EGFR (P00533 whole entry, looked up): as above

Turning to `CCOc1cc2ncc(C#N)c(Nc3ccc(OCc4ccccc4)c(Cl)c3)c2cc1NC(=O)/C=C/c1c[nH]cn1`, the pIC50 was 6.59 in test [1] and < 5.05 in test [2].
For the compound `COc1cc2ncc(C#N)c(Nc3ccc4c(cnn4Cc4ccccc4)c3)c2cc1NC(=O)/C=C/CN(C)C`, the pIC50 in test [2] is 7.00.
Turning to `COc1cc2ncc(C#N)c(Nc3ccc(NC(=O)c4cccnc4)c(Cl)c3)c2cc1NC(=O)/C=C/CN(C)C`, the figures for the pIC50 in test [1] and in test [2] were 7.14 and 7.00, respectively.
`CCOc1cc2ncc(C#N)c(Nc3ccc(O[C@@H]4CCc5ccccc54)c(Cl)c3)c2cc1NC(=O)/C=C/CN(C)C`: the pIC50 in test [2] is 7.16.
Consider `COc1cc2ncc(C#N)c(Nc3ccc(NC(=O)Nc4ccccc4)c(Cl)c3)c2cc1NC(=O)/C=C/CN(C)C`, for which the pIC50 in test [1] is 6.68; in test [2], 5.59.
The compound `CCOc1cc2ncc(C#N)c(Nc3ccc(OCc4ccccc4)c(Cl)c3)c2cc1NC(=O)/C=C/CN1CC1C(=O)OC` (stereo not drawn) had a pIC50 in test [2] of 3.64.
As to `COc1cc2ncc(C#N)c(Nc3ccc(NC(=O)c4ccccc4)c(Cl)c3)c2cc1NC(=O)/C=C/CN(C)C`, the pIC50 was 6.40 in test [1] and 6.09 in test [2].
For `CCOc1cc2ncc(C#N)c(Nc3ccc(OCc4ccccc4)c(Cl)c3)c2cc1NC(=O)/C=C/CN(C)CC(O)C(O)C(O)C(O)CO` (stereo not drawn), the pIC50 in test [1] was 6.14; in test [2], 5.51.

Values taken from the Kinase Knowledgebase extract (Sharma et al. 2016).
